The source of these data is BindingDB's records for patent US10550100 (GALAPAGOS NV, 2020).

pIC50: −log10 of the molar value. Some results are limits rather than exact numbers.

The target in the experiment is T1, A disintegrin and metalloproteinase with thrombospondin motifs 6 (Human, UniProt Q9UKP5).
T1 sequence (Q9UKP5 whole entry): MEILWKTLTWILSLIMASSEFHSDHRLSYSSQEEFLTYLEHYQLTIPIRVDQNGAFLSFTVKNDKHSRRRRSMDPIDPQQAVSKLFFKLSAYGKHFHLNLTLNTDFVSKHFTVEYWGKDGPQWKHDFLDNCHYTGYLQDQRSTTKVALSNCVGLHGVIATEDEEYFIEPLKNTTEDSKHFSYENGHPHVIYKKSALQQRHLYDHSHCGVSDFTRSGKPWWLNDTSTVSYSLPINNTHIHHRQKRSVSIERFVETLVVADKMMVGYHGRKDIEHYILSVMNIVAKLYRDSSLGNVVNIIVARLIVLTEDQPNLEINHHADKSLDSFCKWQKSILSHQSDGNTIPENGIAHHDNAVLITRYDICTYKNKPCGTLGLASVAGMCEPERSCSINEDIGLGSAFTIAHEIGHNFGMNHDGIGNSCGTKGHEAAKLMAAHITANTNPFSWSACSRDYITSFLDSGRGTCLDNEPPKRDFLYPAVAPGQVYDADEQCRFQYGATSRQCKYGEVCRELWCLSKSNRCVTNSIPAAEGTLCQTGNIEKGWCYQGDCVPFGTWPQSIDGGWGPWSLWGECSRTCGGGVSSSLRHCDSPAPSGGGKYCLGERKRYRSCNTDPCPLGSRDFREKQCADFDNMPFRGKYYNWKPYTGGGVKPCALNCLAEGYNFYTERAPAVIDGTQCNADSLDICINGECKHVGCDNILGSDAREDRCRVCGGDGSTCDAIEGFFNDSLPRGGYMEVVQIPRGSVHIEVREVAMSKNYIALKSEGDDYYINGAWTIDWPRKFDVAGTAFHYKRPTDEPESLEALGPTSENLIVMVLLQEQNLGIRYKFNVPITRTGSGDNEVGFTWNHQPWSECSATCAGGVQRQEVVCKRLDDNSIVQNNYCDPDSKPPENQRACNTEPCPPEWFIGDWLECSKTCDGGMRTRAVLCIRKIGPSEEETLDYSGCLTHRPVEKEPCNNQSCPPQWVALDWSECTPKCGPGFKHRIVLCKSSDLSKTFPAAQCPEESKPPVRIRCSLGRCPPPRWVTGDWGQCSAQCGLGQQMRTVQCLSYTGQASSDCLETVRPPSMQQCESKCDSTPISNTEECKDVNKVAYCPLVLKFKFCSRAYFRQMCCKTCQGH
In words: hADAMTS-6 Assay. The method, then:
Without ADAMTS6, the emission of the probe is quenched. If the substrate is cleaved by ADAMTS6, the emission of the probe is not quenched anymore. […] The reaction is started by addition of 10 μL of 1 μM 520 MMP FRET Substrate XII (final concentration, diluted in same buffer as described above) and the mixture is incubated at 37° C. for 2 h. […] After this incubation, cleavage of the substrate is measured using the Envision (Perkin Elmer, exc485/em530).

By pIC50 is commonly meant the IC50 on a negative log10 scale, so that one unit is a factor of ten. A higher pIC50 goes with a small IC50. Consider `COc1c(Cl)cc(Cl)cc1C1CCN(C(=O)CC[C@H]2NC(=O)NC2=O)CC1` [US10550100, Compound 70], for which the negative logarithm of the IC50 (pIC50) is below 7.00.
